From PubChem BioAssay (NCI)
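Grown in 96-well plates, cells were treated for 48 hours with each compound at five concentrations. Insufficient inhibition: endpoint recorded as highest concentration tested. Here, GI50 denotes the concentration required for 50% inhibition of growth. TGI marks complete inhibition of growth.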

Columns and labels:
Experiment in all cases: NCI-60 cell line screen, 48 h
786-0 renal = test system: 786-0 renal
DU-145 prostate = test system: DU-145 prostate
HCT-116 colon = test system: HCT-116 colon
IGROV1 ovarian = test system: IGROV1 ovarian
MDA-MB-231 breast = test system: MDA-MB-231 breast
OVCAR-8 ovarian = test system: OVCAR-8 ovarian
RXF 393 renal = test system: RXF 393 renal
SK-MEL-5 melanoma = test system: SK-MEL-5 melanoma
SW-620 colon = test system: SW-620 colon
NCI-H226 lung = test system: NCI-H226 lung

SMILES	GI50 (786-0 renal) [µM]	TGI (786-0 renal) [µM]	GI50 (DU-145 prostate) [µM]	TGI (DU-145 prostate) [µM]	GI50 (HCT-116 colon) [µM]	TGI (HCT-116 colon) [µM]	GI50 (IGROV1 ovarian) [µM]	TGI (IGROV1 ovarian) [µM]	GI50 (MDA-MB-231 breast) [µM]	TGI (MDA-MB-231 breast) [µM]	GI50 (OVCAR-8 ovarian) [µM]	TGI (OVCAR-8 ovarian) [µM]	GI50 (RXF 393 renal) [µM]	TGI (RXF 393 renal) [µM]	GI50 (SK-MEL-5 melanoma) [µM]	TGI (SK-MEL-5 melanoma) [µM]	GI50 (SW-620 colon) [µM]	TGI (SW-620 colon) [µM]	GI50 (NCI-H226 lung) [µM]	TGI (NCI-H226 lung) [µM]
N#Cc1cc(-c2ccccc2)[nH]c1-c1nccc2ccccc12	26.9	> 100	32.3	> 100	9.13	> 100	23.3	> 100	19.4	> 100	22.7	> 100	13.6	89.1	3.58	15.2	61.5	> 100	–	–
c1ccc2c(c1)nnn1c3cnccc3nc21	–	> 100	–	–	–	> 100	–	> 100	–	–	–	> 100	–	66.3	–	> 100	–	> 100	–	–
COc1ccc(Nc2nc(NCc3ccccc3)c3ccccc3n2)cc1	6.31	20.9	8.75	21.9	–	–	7.12	25.7	4.3	16.9	2.17	5.15	–	–	1.68	3.14	2.82	10.4	11.5	37.1
Nc1ccccc1S(=O)c1ccccc1 (centres undefined)	–	> 100	–	–	–	> 100	–	> 100	–	–	–	> 100	–	> 100	–	> 100	–	> 100	–	> 100
OCC1OC(n2ccc3cnccc32)CC1O (centres undefined)	–	> 100	–	–	–	> 100	–	> 100	–	–	–	> 100	–	–	–	> 100	–	> 100	–	> 100
COC(=O)C1C2CC3C(OC(=O)C31)C2I (centres undefined)	–	> 100	–	–	–	> 100	–	> 100	–	–	–	> 100	–	> 10	–	> 100	–	> 100	–	> 100
COC1OC(COCc2ccc(Cl)cc2)C(OCc2ccc(Cl)cc2)C1O (centres undefined)	–	30.8	–	–	–	–	–	50.9	–	–	–	69.7	–	29.1	–	28.6	–	29.6	–	–
COC(=O)C1C(=O)O[C@@H](c2ccc(OC)cc2)C1C(=O)OC (some centres undefined)	–	> 100	–	–	–	> 100	–	> 100	–	–	–	> 100	–	> 100	–	> 100	–	> 100	–	> 100
CCCCCCCCC(=O)CCCCCCCCC(=O)O	–	64.3	–	–	–	51	–	36.4	–	–	–	32.4	–	67.1	–	29.1	–	> 100	–	63.6
Cc1cc(N2CCOCC2)nc(N(CCNc2ccnc3cc(Cl)ccc23)Cc2ccco2)n1	2.14	4.91	6.85	26.5	–	–	3.92	23.1	3.16	13.4	3.84	> 100	1.64	4.29	3.1	12.1	3.39	45.2	3.78	25.5
NC1=NN(c2ccccc2)C(=O)C1C(=O)C(=O)NC1C2CC3CC(C2)CC1C3 (centres undefined)	–	> 100	–	–	–	> 100	–	> 100	–	–	–	> 100	–	> 100	–	> 100	–	> 100	–	> 100
O=[n+]1cnn([O-])c2ccccc21	–	42.1	–	> 100	–	36.9	–	28.5	–	31	–	> 100	–	59.6	–	–	–	46.1	–	> 100
NCC(=O)Nc1ccc(-n2nc(C(F)(F)F)cc2-c2ccc3c(ccc4ccccc43)c2)cc1	1.47	3.06	1.32	2.62	0.761	2	–	–	1.35	2.87	0.929	3.15	1.38	2.75	1.25	2.56	0.835	2.16	2.15	6.35
Cc1c(NC(=O)CCCl)c(=O)oc2c(C)c3occc(=O)c3cc12	–	> 100	–	> 100	–	> 100	–	> 100	–	–	–	> 100	–	> 100	–	> 100	–	> 100	–	–
CCC[CH2][Sn]([CH2]CCC)([O]C(=O)c1cc(OC)c(OC)c(OC)c1)[O]C(=O)c1cc(OC)c(OC)c(OC)c1	1.29	2.57	–	–	1.37	2.66	1.32	2.73	–	–	1.5	3.37	0.297	1.12	1.49	2.97	0.973	2.72	1.21	2.59
CC(=O)NC(ON1C(=O)COc2ccccc21)C(Cl)(Cl)Cl (centres undefined)	–	> 100	–	–	–	> 100	–	> 100	–	–	–	> 100	–	–	–	–	–	> 100	–	88.1
CC(=O)c1cc2c3c(c1)c1cc4c(cc1c(=O)n3CC2)OCO4	–	> 100	–	–	–	26.6	–	> 100	–	–	–	> 100	–	> 100	–	> 100	–	> 100	–	> 100
CCOC(=O)CC(=O)N(c1ccc(OC)cc1)C(C(=O)OC)c1ccccc1 (centres undefined)	–	> 100	–	> 100	–	> 100	–	> 100	–	–	–	> 100	–	–	–	> 100	–	> 100	–	–
COC(=O)C1=C2C3=C(C(=O)c4ccccc4C3=O)N(Cc3ccccc3)C2(OC(C)=O)C=CC1=O (centres undefined)	2.28	10.1	14.8	61.9	6.25	24.8	16.5	> 100	–	8.05	22.4	83	–	–	10.2	24.9	17.2	94	11.6	32.6
O=S1Cc2ccccc2CS1 (centres undefined)	–	29.2	–	–	–	57.2	–	> 100	–	–	–	28.7	–	29.5	–	> 100	–	27.1	–	> 100
